{
  "source": "patent US20260248810A1",
  "about": "“COMPOSITIONS FOR TREATING A SUBJECT FROM SEXUAL DYSFUNCTION” (priority 2023, published 2026)",
  "key": {"[1]": {"conditions": "cited from earlier work"}, "[2]": {"system": "male heterosexual patients with sexual problems (erection problems and reduced sexual arousal)", "assay": "Self-rated sexual arousal (scale 1 to 10) before and during sexual activity, sublingual androgen(s) followed by Viagra", "format": "in vivo, human", "conditions": "history of the two male patients before the alternative treatments", "description": "(§1) The first example concerns two male heterosexual patients with sexual problems (erection problems and reduced sexual arousal). […] This prompted two alternative forms of treatment. The first treatment involved taking 5 mg sublingual testosterone (in a solution consisting of alcohol, denaturalized water, testosterone and cyclodextrins) followed 2.5 hours later by taking Viagra (sildenafil 50 mg). The second treatment consisted of simultaneously taking 5 mg sublingual testosterone and 5 mg sublingual dihydrotestosterone (DHT) (in a solution consisting of alcohol, denaturalized water, DHT and cyclodextrins), followed after 2.5 hours by taking Viagra (50 mg). The testosterone and DHT solutions were prepared by a pharmacist on the request of a general practitioner. On both treatment days, patients were asked to engage in sexual activity between 1 and 1.5 hours after taking Viagra. […] Patients were also asked to answer some questions about their sexual arousal immediately before and within an hour after sexual activity."}, "[3]": {"assay": "Plasma total and free testosterone after sublingual androgen intake in two male patients", "conditions": "blood plasma 15 minutes after sublingual intake, 5 mg T, or 5 mg T + 5 mg DHT; for Free T: measured, not calculated; for concentration at 15 min: human, plasma, other: sublingual, 5 mg, Total T", "description": "as §1\nThe table below describes the effects of the different treatments on ‘total testosterone’ and ‘free testosterone (i.e. measured, not calculated)’ for both patients: […]"}, "[4]": {"conditions": "sublingually with cyclodextrins; women about 0.1-2 mg, men about 0.5-20 mg; cited from earlier work"}},
  "data": [
    {"smiles": "CC[C@H](C)[C@@H]1NC(=O)[C@H](Cc2ccc(O)cc2)NC(=O)[C@@H](N)CSSC[C@@H](C(=O)N2CCC[C@H]2C(=O)N[C@@H](CC(C)C)C(=O)NCC(N)=O)NC(=O)[C@H](CC(N)=O)NC(=O)[C@H](CCC(N)=O)NC1=O", "note": "[oxytocin]", "values": [
      {"measurement": "time of behavioral and neural effects after administration", "setting": "[1]; dosages between 20-50 IE", "result": "15 to 90", "unit": "min"},
      {"measurement": "T-max of oxytocin levels in the blood circulation", "setting": "[1]; intranasal administration", "result": "approximately 15 minutes"},
      {"measurement": "return of oxytocin levels to baseline", "setting": "[1]; intranasal administration", "result": "approximately 90 minutes"}
    ]},
    {"smiles": "CCCc1nn(C)c2c(=O)[nH]c(-c3cc(S(=O)(=O)N4CCN(C)CC4)ccc3OCC)nc12", "note": "[Viagra, sildenafil]", "values": [
      {"measurement": "effect of the usual treatments on the sexual problems", "setting": "[2]", "result": "little or no effect"}
    ]},
    {"smiles": "C[C@]12CC[C@H]3[C@@H](CCC4=CC(=O)CC[C@@]43C)[C@@H]1CC[C@@H]2O", "note": "[T, 17-β-hydroxyandrost-4-en-3-one]", "values": [
      {"measurement": "Free T", "setting": "[3]; Patient 1", "result": 440, "unit": "pml/L"},
      {"measurement": "Free T", "setting": "[3]; Patient 2", "result": 1030, "unit": "pml/L"},
      {"measurement": "concentration at 15 min", "setting": "[3]; Patient 1", "result": 28.7, "unit": "nM"},
      {"measurement": "concentration at 15 min", "setting": "[3]; Patient 2", "result": 43.9, "unit": "nM"},
      {"measurement": "time to pharmacological peak in testosterone", "setting": "[4]", "result": "about 15 minutes"}
    ]}
  ]
}
